What was measured:
Assay type in all cases: cell-based
[1] = tested on: bacteria present on the surface of meat samples; test: Bacterial growth under air, CO and N2 atmospheres, non-selective agar plates (Bactoagar); conditions: 4 g meat samples flushed with gas, 24 h at 15±3° C.; plates overnight at 37° C.
Procedure: (§1) Meat samples weighing 4.00+0.18 grams, were treated by flushing with either air, CO, or N2. After twenty-four hours of storage at room temperature (15±3° C.) each of the treated meat samples was soaked in sterile 0.15M sodium chloride (1 ml per 2 grams of treated meat) for ninety minutes to extract any bacteria present on the surface of individual samples. Aliquots of serial dilutions of the extracts were plated onto non-selective agar plates (Bactoagar, Difco) and on Gram negative selective plates (MacConkey, Difco). All the plates were incubated over night at 37° C. to allow bacterial growth.

[2] = tested on: Gram negative bacteria on the surface of meat samples; test: Bacterial growth under air, CO and N2 atmospheres, Gram negative selective plates (MacConkey); conditions: 4 g meat samples flushed with gas, 24 h at 15±3° C.; MacConkey plates overnight at 37° C.
Procedure: as §1

E coli = test: Growth of inoculated E coli on meat under defined atmospheres; conditions: beef; high CO (95-100%) or low (10%) CO versus untreated
Procedure: (§2) Studies were carried out comparing growth of inoculated pathogenic bacteria on fresh meat under three atmospheres. Air and two CO containing modified atmospheres: high CO (95-100%) and low (10%) CO. In low CO MA CO was replaced by an inert gas, nitrogen. Note that in most experiments the CO untreated control was the same for both modified atmospheres. Experiments with E coli were carried out on different meat controls.

Pseudomonas fluorescence = test: Growth of inoculated Pseudomonas fluorescence on meat under defined atmospheres; conditions: beef and poultry; high CO (95-100%) or low (10%) CO versus untreated
Procedure: as §2

Staphylococcus aures = test: Growth of inoculated Staphylococcus aures on meat under defined atmospheres; conditions: beef; high CO (95-100%) versus untreated
Procedure: as §2

Listeria monocytogenes = test: Growth of inoculated Listeria monocytogenes on meat under defined atmospheres; conditions: beef and poultry; high CO (95-100%) or low (10%) CO versus untreated
Procedure: as §2

Clostridium prefringens = test: Growth of inoculated Clostridium prefringens on meat under defined atmospheres; conditions: beef and poultry; high CO (95-100%) or low (10%) CO versus untreated
Procedure: as §2

Salmonella Typhimirium = test: Growth of inoculated Salmonella Typhimirium on meat under defined atmospheres; conditions: beef; high CO (95-100%) or low (10%) CO versus untreated
Procedure: as §2

| Structure (SMILES) | No of calories, Grown on bactoagar (bacterial colony counts per gram of meat, mean±SD) [1] | No of calories, Gram negative (bacterial colony counts per gram of meat, mean±SD) [2] | growth of E coli (E coli) | growth of Pseudomonas fluorescence (Pseudomonas fluorescence) | growth of Staphylococcus aures (Staphylococcus aures) | growth of Listeria monocytogenes (Listeria monocytogenes) | growth of Clostridium prefringens (Clostridium prefringens) | growth of Salmonella Typhimirium (Salmonella Typhimirium) |
| --- | --- | --- | --- | --- | --- | --- | --- | --- |
| [C-]#[O+] [CO, carbon monoxide] | (0.29 ± 0.01) × 10^6 per gram of meat | 0.02 ± 0.01) × 10^6 per gram of meat | inhibited | inhibited | inhibited | inhibited | inhibited | inhibited |
| N#N [N2, nitrogen, reference compound] | (1.63 ± 0.3) × 10^6 per gram of meat | (0.46 + 0.25) × 10^6 per gram of meat | – | – | – | – | – | – |

From US20040009273A1, “Method for the long-term preservation of meat and the meat process thereby” (priority 1996, published 2004)
